Experimental data: patent publication US8193157B2, “Antiviral therapies” (priority 2005, dated 2012)
In brackets after ≈: the same amount, converted by molar mass. Where two headings read alike, the source gives them in different places. Marks after values point to notes of the source that are not given here.

How the values were obtained:
HIV-1 (strain IIIB) = assay type: cell-based; conditions: for EC50: CEM cells
HIV-2 (strain ROD) = assay: Anti-HIV assay, inhibition of HIV-2(ROD)-induced cytopathicity in CEM cells; assay type: cell-based; conditions: virus-induced cytopathicity, mean ±SD
HCVcc (subtype 2a) = assay: Infectious HCVcc (subtype 2a) infection of Huh7 cells, luciferase activity; assay type: cell-based, HCV
Protocol: Huh7 cells (2×10^4) were plated and 24 hours later infected with supernatants containing infectious HCVcc pre-mixed with serial dilutions of lectins or polyanions. Mannan (2.5 mg/ml; Sigma) was added to some of the mixtures prior to Huh7 infection. After 24 hours post infection, the mixture of virus and test compounds was replaced by fresh medium, cells were brought at 37° C. and luciferase activity was measured in the cell lysates 24 hours later.
The inhibitory activities of carbohydrate binding small molecules and agents against infectious HIV-1 (strain IIIB), HIV-2 (strain ROD) and HCVcc (subtype 2a) were evaluated in human T lymphocyte cells (CEM) and human hepatocellular carcinoma cells (Huh-7), respectively (Table 1). […] The effect of mannan on the antiviral activity of the CBA was investigated.

HCVpp (1a) = assay: HCV pseudoparticle HCVpp (1a) entry into Huh7 cells, luciferase activity; assay type: cell-based; conditions: for EC50: Huh7 cells, luciferase activity, mean ±SD
From the text: (§1) Production of pseudoparticles (HCVpp) and cell culture infection. To produce HCVpp, 293T cells (1.2×10^6) were lipofected at a 1:2 ratio of a NLluc^+env^− reporter vector and a vector expressing the HCV envelope glycoproteins as previously described (Bertaux and Dragic, 2006). HCV envelope glycoprotein-encoding sequences corresponding to subtypes 1b and 2b were PCR-amplified from patient sera starting from the last 60 amino acids in the Core to the end of glycoprotein E2. Supernatants were collected 48 hours post lipofection, filtered (0.45μ) and stored at −80° C. until further use. HCVpp were tested by infection of Huh7 cells (5×10^4) and measuring luciferase activity (relative light units, RLU) 48 hours post infection using the Luciferase assay system according to the manufacturer's instructions.
(§2) To measure inhibition of HCVpp (1a,1b,2b) entry into Huh7 cells by CBA and polyanions, an essentially similar procedure has been used as described above for infectious HCVcc (2a).
(§3) In order to reveal whether CBA also act at the level of HCV entry, we evaluated their ability to inhibit entry of pseudoparticles comprising the HCV envelope glycoproteins E1 and E2 into Huh-7 cells.

HCVpp (1b) = assay: HCV pseudoparticle HCVpp (1b) entry into Huh7 cells, luciferase activity; assay type: cell-based; conditions: mean ±SD
From the text: as §1, §2, §3

HCVpp (2b) = assay: HCV pseudoparticle HCVpp (2b) entry into Huh7 cells, luciferase activity; assay type: cell-based; conditions: mean ±SD
From the text: as §1, §2, §3

VSVpp = assay type: cell-based, VSV; conditions: read-out: EC50 VSVpp (C8166)
[1] = tested on: HIV-1(IIIB) capture by Raji/DC-SIGN cells; assay: Inhibition of HIV-1 capture by Raji/DC-SIGN cells (p24 Ag); assay type: cell-based; conditions: HIV-1 exposed 30 min to compound before addition to cells
Protocol: Inhibition of HIV-1 capture by Raji/DC-SIGN cells. HIV-1 particles (2.2 μg p24/ml) were exposed to serial dilutions of the test compounds (400 μl) for 30 min. Then, the drug-exposed virus suspensions (500 μl) were mixed with Raji/DC-SIGN cell suspensions (500 μl; 10^6 cells) for 60 min at 37° C. after which the cells were thoroughly washed twice with 40 ml culture medium as described above. […] The Raji/DC-SIGN cell cultures were then analysed for HIV-1 p24 Ag content.
Raji B-lymphocyte cells were modified to express DC-SIGN at their cell surface (Geijtenbeek et al., 2000; Wu et al., 2004). When Raji/DC-SIGN cells were exposed to cell-free HIV-1(IIIB) particles, they were able to efficiently capture the virus particles as evidenced by retention of p24 antigen of HIV-1 on the Raji/DC-SIGN cells (˜1200 pg p24). […] The CBA could prevent >90% of HIV-1 capture at concentrations >2 μM for GNA, HHA and CA; >10 μM for UDA and >60 μM for PRM-A.

Influenza A H3N2 = assay type: cell-based
Influenza A H1N1 = assay type: cell-based
Influenza B = assay type: cell-based; conditions: MDCK cell cultures
[2] = tested on: AB-resistant HIV-1 (N44.3), glycan deletions N461P and N635K; assay: Anti-HIV activity against AB-resistant HIV-1 strain in CEM cells; assay type: cell-based; conditions: AB-resistant virus strain (N461P, N635K)
HUT-78/HIV + Sup T-1 = assay: Giant cell formation in a co-cultivation assay HUT-78/HIV + Sup T-1; assay type: cell-based
HIV-1 (NL4.3) = assay: Anti-HIV activity of Alcian Blue against HIV-1 (NL4.3) in CEM cells
Protocol: Compounds were tested against HIV-1 strains (HE, NL43, MN, IIIB), HIV-2 strains (ROD, EHO, RF), and SIV (MAC251) for inhibition of virus-induced cytopathicity in MT-4 cells (or CEM or C8166 or Molt4/C8 cells), using the colorimetric test described by Pauwels et al. in J. Virol. […] For example microtiter 96-well plates containing ˜3×10^5 CEM cells/ml, infected with 100 CClD50 of HIV per ml and containing appropriate dilutions of the test compounds were used.
A rapid and automated assay procedure was used for the in vitro evaluation of anti-HIV agents. An HTLV-1 transformed T4-cell line MT-4, which was previously shown to be highly susceptible to and permissive for HIV infection, can serve as the target cell line. Inhibition of the HIV-induced cytopathogenic effect was used as the end point. The viability of both HIV- and mock-infected cells was also assessed spectrophotometrically via in situ reduction of 3(4,5-dimethylthiazol-2-yl)-2,5-diphenyltetrazolium bromide (MTT). Methods comprise for example the microscopic examination of CEM, C8166 or Molt4/C8 giant (syncytium) cell formation, after 4 to 5 days of incubation at 37° C. in a CO2-controlled humidified atmosphere. […] The percent protection achieved by the compound in HIV-infected cells is calculated by the following formula:

[3] = in the presence of mannan 2.5 mg/ml, read-out: HIV-1 EC50 +Mannan (2.5 mg/ml)
[4] = virus-induced cytopathicity, mean ±SD, read-out: EC50 HIV-1(IIIB) (CEM)
[5] = without mannan (Table 3), read-out: HIV-1 EC50 As such
[6] = in the presence of mannan 2.5 mg/ml, read-out: HCV(2a) EC50 +Mannan (2.5 mg/ml)
[7] = luciferase activity, mean ±SD, read-out: EC50 HCV (2a) (Huh7)
[8] = without mannan (Table 3), read-out: HCV(2a) EC50 As such

Molecule: CN[C@@H]1[C@H](O[C@@H]2OC[C@@H](O)[C@H](O)[C@H]2O)[C@@H](O)[C@H](O[C@H]2c3cc(C)c(C(=O)N[C@H](C)C(=O)O)c(O)c3-c3c(cc4c(c3O)C(=O)c3cc(OC)cc(O)c3C4=O)[C@@H]2O)O[C@@H]1C [PRM-A, pradimicin A, reference compound]
- EC50 (HIV-1 (strain IIIB); [3]): 40000 ± 13000 nM
- EC50 (HIV-1 (strain IIIB); [4]): 3360 ± 1200 nM
- EC50 (HIV-1 (strain IIIB); [5]): 5300 ± 780 nM
- EC50 (HIV-2 (strain ROD)): 1800 nM
- EC50 (HCVcc (subtype 2a); [6]): > 30000 nM
- EC50 (HCVcc (subtype 2a); [7]): 3610 ± 780 nM
- EC50 (HCVcc (subtype 2a); [8]): 3610 ± 780 nM
- EC50 (HCVpp (1a)): 1170 ± 310 nM
- EC50 (HCVpp (1b)): 1670 ± 60 nM
- EC50 (HCVpp (2b)): 924 ± 156 nM
- EC50 (VSVpp): > 60000 nM
- concentration preventing >90% of HIV-1 capture by Raji/DC-SIGN cells [1]: > 60 µM
- EC50 Influenza A H3N2 (Influenza A H3N2): 1.6 µg/mL (≈ 1.9 µM)
- EC50 Influenza A H1N1 (Influenza A H1N1): 1.9 µg/mL (≈ 2.26 µM)
- EC50 Influenza B (Influenza B): 2.4 µg/mL (≈ 2.85 µM)

Molecule: Alcian Blue
- EC50 HIV-1R (N44.3) (CEM) [2]: >50 µg/mL
- EC50 HUT-78/HIV + Sup T-1 (HUT-78/HIV + Sup T-1): 4.5 ± 1.5^c μg/ml
- EC50 HCVpp (1a) (HCVpp (1a); Alcian Blue table): 30^d μg/ml
- EC50 Influenza A H3N2 (Influenza A H3N2): >20 µg/mL
- EC50 Influenza A H1N1 (Influenza A H1N1): >20 µg/mL
- EC50 Influenza B (Influenza B): >20 µg/mL
- EC50 HIV-1 (NL4.3) (CEM) (HIV-1 (NL4.3)): 5 ± 1 µg/mL

B1: UDA: GlcNAc-specific plant lectin from Urtica dioica (stinging nettle) (protein, UniProt P11218 24-372, looked up)
Lectin/endochitinase 1: QRCGSQGGGGTCPALWCCSIWGWCGDSEPYCGRTCENKCWSGERSDHRCGAAVGNPPCGQDRCCSVHGWCGGGNDYCSGSKCQYRCSSSVRGPRVALSGNSTANSIGNVVVTEPLFDQMFSHRKDCPSQGFYSYHSFLVAAESFPAFGTIGDVATRKREVAAFLAHISQATSGERSDVENPHAWGLCHINTTTVTENDFCTSSDWPCAAGKKYSPRGPIQLTHNFNYGLAGQAIGEDLIQNPDLVEKDPIISFKTALWFWMSQHDNKPSCHDIVLNANSAANRIPNKGVIGNIISRAFGHDDFAVRSSSIGFYKRYCDMLGVSYGHDLKYWFDNTPSSEFQRIQMRVAA
- EC50 (HIV-1 (strain IIIB); [3]): 459 nM
- EC50 (HIV-1 (strain IIIB); [4]): 140 ± 40 nM
- EC50 (HIV-1 (strain IIIB); [5]): 149 ± 40 nM
- decrease of antiviral activity against HIV-1 in the presence of mannan (HIV-1 (strain IIIB); mannan): 3 fold
- EC50 (HIV-2 (strain ROD)): 391 ± 106 nM
- EC50 (HCVcc (subtype 2a); [6]): 560 ± 108 nM
- EC50 (HCVcc (subtype 2a); [7]): 176 ± 29 nM
- EC50 (HCVcc (subtype 2a); [8]): 176 ± 29 nM
- EC50 (HCVpp (1a)): 32 ± 15 nM
- EC50 (HCVpp (1b)): 19 ± 22 nM
- EC50 (HCVpp (2b)): 50 ± 54 nM
- EC50 (VSVpp): > 11000 nM
- concentration preventing >90% of HIV-1 capture by Raji/DC-SIGN cells [1]: > 10 µM
- EC50 Influenza A H3N2 (Influenza A H3N2): 0.99 µg/mL
- EC50 Influenza A H1N1 (Influenza A H1N1): 4.1 µg/mL
